Measurements as given in US8586505B2 (SDS Biotech K. K., priority 2009, dated 2013).

What was measured:
Sphaerotheca fuliginea = assay: Test of examining control effect on Sphaerotheca fuliginea (potted cucumber plants); assay type: in vivo; conditions: Podosphaera fuliginea, 336 h; 10% wettable powder adjusted to 125 ppm, 15 ml/pot sprayed on potted cucumber plants one day before spray inoculation; assessed after 14 days in greenhouse; read-out: Determination of control effect (preventive value) on Sphaerotheca fuliginea
Method in brief: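 Control effect rated high at preventive value 60–100% and low below 60%, from lesion area relative to untreated plants 14 days after spray inoculation with S. fuliginea (1.0×10^5 cells/ml). Compound applied at 125 ppm as wettable-powder spray one day before inoculation, on 2nd-leaf-stage Sagamihanjiro cucumber.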

Phytophthora infestans = assay: whole plant or invertebrate; assay type: in vivo; conditions: in Solanum lycopersicum, 96 h, read-out: Determination of control effect (preventive value)
[1] = system: Pseudoperonospora cubensis; assay: Test of examining control effect on Pseudoperonospora cubensis (potted cucumber plants); assay type: in vivo; conditions: 96 h, 10% wettable powder adjusted to 125 ppm, 15 ml/pot sprayed on potted cucumber plants one day before spray inoculation, assessed after 1 day wet chamber and 3 days greenhouse, read-out: Determination of control effect (preventive value) on Pseudoperonospora cubensis
Method in brief: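 Preventive treatment: 125 ppm sample agent solution (from 10% wettable powder) sprayed at 15 ml/pot on 2.5-leaf Sagamihanjiro cucumbers, then P. cubensis inoculated next day at 1.0×10^4 cells/ml. Incubation was 1 day wet at 21° C plus 3 days greenhouse. Lesion area rate compared with untreated gives preventive value (≥60% high).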

Row | Structure (SMILES) | pest or weed control at 125 µg/mL (Sphaerotheca fuliginea) [%] | pest or weed control at 125 ppm (Phytophthora infestans) [%] | pest or weed control at 125 µg/mL [1] [%] | melting point [°C]
1 | CC(C)[Si](C#CCCNc1ncnc2sccc12)(C(C)C)C(C)C [compound 4] | 0 to 60 | 0 to 60 | 0 to 60 | 196 to 198
2 | C(#Cc1csc(-c2cccnc2)n1)CCNc1ncnc2sccc12 [compound 81] | 0 to 60 | 0 to 60 | 60 to 100 | 175 to 177
3 | C(#Cc1cncs1)CCNc1ncnc2sccc12 [compound 61] | 60 to 100 | 60 to 100 | 60 to 100 | 156 to 158
4 | N#Cc1c(F)cccc1C#CCCNc1ncnc2ccccc12 [compound 165] | 60 to 100 | 0 to 60 | 60 to 100 | 163 to 164
5 | Clc1ccc(Cl)c(C#CCCNc2ncnc3ccccc23)c1 [compound 173] | 60 to 100 | 0 to 60 | 60 to 100 | 176 to 177
6 | OCc1cc(C#CCCNc2ncnc3ccccc23)co1 [compound 209] | 0 to 60 | 0 to 60 | 60 to 100 | 135 to 147
7 | FC(F)(F)c1ccccc1C#CCC(Nc1ncnc2ccccc12)c1ccccc1 (stereo not drawn) [compound 302] | 0 to 60 | 0 to 60 | 0 to 60 | 150 to 152
8 | OCc1cccc(C#CCCNc2ncnc3ccccc23)c1 [compound 131] | 60 to 100 | 60 to 100 | 60 to 100 | 113 to 115
9 | C(#Cc1csc(-c2ccsc2)n1)CCNc1ncnc2sccc12 [compound 80] | 60 to 100 | 0 to 60 | 60 to 100 | 55 to 56
10 | FC(F)(F)c1ccc(Cl)c(C#CCCNc2ncnc3ccccc23)c1 [compound 176] | 60 to 100 | 0 to 60 | 60 to 100 | 144 to 145
11 | Clc1cccc(Cl)c1C#CCCNc1ncnc2ccccc12 [compound 174] | 60 to 100 | 60 to 100 | 60 to 100 | 153 to 155
12 | CC(=O)OCc1nc(C#CCCNc2ncnc3sccc23)cs1 [compound 73] | 60 to 100 | 60 to 100 | 60 to 100 | 128 to 129
13 | CSc1cccc(C#CCCNc2ncnc3ccccc23)c1 [compound 116] | 60 to 100 | 60 to 100 | 60 to 100 | 141 to 142
14 | FC(F)(F)c1ccc(C#CCCNc2ncnc3ccccc23)cn1 [compound 198] | 60 to 100 | 0 to 60 | 60 to 100 | 134 to 139
15 | Clc1cc(NCCC#Cc2ccccc2)ncn1 [compound 358] | 60 to 100 | 0 to 60 | 0 to 60 | 118 to 120
16 | C(#Cc1ccccc1)CC(Nc1ncnc2ccccc12)c1ccccc1 (stereo not drawn) [compound 301, 4-[(1,4-diphenyl-3-butynyl)amino]quinazoline] | 0 to 60 | 0 to 60 | 0 to 60 | 141 to 143
17 | C(#Cc1nccs1)CCNc1ncnc2sccc12 [compound 62] | 60 to 100 | 60 to 100 | 60 to 100 | 128 to 129
18 | CCOC(=O)c1ccc(C#CCCNc2ncnc3ccccc23)cc1 [compound 129] | 0 to 60 | 0 to 60 | 60 to 100 | 137 to 138
19 | C(#Cc1csc(-c2ccco2)n1)CCNc1ncnc2sccc12 [compound 77] | 0 to 60 | 0 to 60 |  | 53 to 55
20 | OC(c1ccccc1C#CCCNc1ncnc2ccccc12)C(F)(F)F (stereo not drawn) [compound 138] | 0 to 60 | 0 to 60 | 0 to 60 | 183 to 187
21 | Clc1ncnc(NCCC#Cc2ccccc2)c1Cc1ccccc1 [compound 372] | 0 to 60 | 0 to 60 | 0 to 60 | 157 to 158

Row | Structure (SMILES) | pest or weed control at 125 µg/mL (Sphaerotheca fuliginea) [%] | pest or weed control at 125 ppm (Phytophthora infestans) [%] | pest or weed control at 125 µg/mL [1] [%] | melting point [°C]
22 | COc1ccc(Cl)cc1C#CCCNc1ncnc2ccccc12 [compound 179] | 60 to 100 | 60 to 100 | 60 to 100 | 147 to 149
23 | C(#Cc1csc(-c2ccoc2)n1)CCNc1ncnc2sccc12 [compound 78] | 60 to 100 | 0 to 60 | 60 to 100 | 140 to 142
24 | CCOC(=O)c1sc(C#CCCNc2ncnc3ccccc23)nc1C [compound 214] | 60 to 100 | 0 to 60 | 60 to 100 | 139 to 140
25 | FC(F)(F)c1cccc(Oc2nc(C#CCCNc3ncnc4ccccc34)cs2)c1 [compound 219] | 60 to 100 | 0 to 60 | 60 to 100 | 106 to 108
26 | OCc1ccc(C#CCCNc2ncnc3ccccc23)cc1 [compound 132] | 0 to 60 | 0 to 60 | 60 to 100 | 69 to 71
27 | FC(F)(F)c1cc(C#CCCNc2ncnc3sccc23)cc(C(F)(F)F)c1 [compound 28] | 0 to 60 | 0 to 60 | 0 to 60 | 163 to 166
28 | CCOc1ccccc1C#CCCNc1ncnc2ccccc12 [compound 118] | 60 to 100 | 60 to 100 | 60 to 100 | 119 to 120
29 | C(#Cc1ccc(OC2CCCCO2)cc1)CCNc1ncnc2ccccc12 (stereo not drawn) [compound 156] | 60 to 100 | 60 to 100 | 60 to 100 | 163 to 165
30 | OCc1nc(C#CCCNc2ncnc3sccc23)cs1 [compound 70] | 60 to 100 | 60 to 100 | 60 to 100 | 193
31 | COc1ccc(Oc2nc(C#CCCNc3ncnc4ccccc34)cs2)cc1 [compound 217] | 60 to 100 | 0 to 60 | 60 to 100 | 150 to 152
32 | Cc1cccc(C#CCCNc2ncnc3sccc23)c1 [compound 18] | 60 to 100 | 0 to 60 | 60 to 100 | 120 to 123
33 | Fc1cc(Cl)ccc1C#CCCNc1ncnc2ccccc12 [compound 164] | 60 to 100 | 60 to 100 | 60 to 100 | 198 to 199
34 | Clc1ccc(C#CCCNc2ncnc3ccccc23)cc1Cl [compound 175] | 60 to 100 | 0 to 60 | 60 to 100 | 147 to 148
35 | N#Cc1ccc(Oc2nc(C#CCCNc3ncnc4ccccc34)cs2)cc1 [compound 223] | 60 to 100 | 60 to 100 | 60 to 100 | 55 to 57
36 | CS(=O)(=O)c1ccc(C#CCCNc2ncnc3ccccc23)cc1 [compound 120] | 60 to 100 | 60 to 100 | 60 to 100 | 164 to 165
37 | FC(F)(F)c1ccccc1C#CCCNc1ncnc2cc(Cl)ccc12 [compound 308] | 60 to 100 | 0 to 60 | 60 to 100 | 153 to 154
38 | Fc1cncc(C#CCCNc2ncnc3ccccc23)c1 [compound 193] | 60 to 100 | 60 to 100 | 60 to 100 | 145 to 150
39 | N#Cc1cccc(Oc2nc(C#CCCNc3ncnc4ccccc34)cs2)c1 [compound 222] | 60 to 100 | 0 to 60 | 60 to 100 | 137 to 139
40 | FC(F)(F)c1ccccc1Oc1nc(C#CCCNc2ncnc3ccccc23)cs1 [compound 218] | 0 to 60 | 0 to 60 | 60 to 100 | 159 to 161
41 | Fc1cccc(F)c1C#CCCNc1ncnc2sccc12 [compound 42] |  | 60 to 100 | 60 to 100 | 179 to 181
